The results in this text go back to paper PMC9657303, “Phenylethanoid and Phenylmethanoid Glycosides from the Leaves of Ligustrum robustum and Their Bioactivities” (Molecules, 2022).

One test concerns α-Glucosidase from yeast. The test can be described thus: α-glucosidase inhibitory activity. It is filed as biochemical. To be noted: for α-Glucosidase Inhibition at 0.1 mM: mean ± SD (n = 3), NA: no activity; for α-glucosidase inhibitory effects (in words): weaker than the positive control acarbose. As to the method: S1. Determination of bioactivities […]
S1.2. Determination of α-glucosidase inhibitory activity […]
diluted with phosphate buffer (0.1 M, pH 6.8). […]
and 4-nitrophenyl α-D-glucopyranoside (pNPG) solution (50 µL, 5 mM) were mixed and incubated in a 96-well microplate at 37 °C for 5 min. α-Glucosidase from yeast (50 µL, 0.2 U/mL) was added and incubated at 37 °C for another 30 min. Finally, 50 µL of Na2CO3 (1M) was added to terminate the reaction. The absorbance of mixture was measured using a microplate reader at a wavelength 405 nm. […]
following equation: α-glucosidase inhibition (%) = (Acontrol- Asample)/Acontrol×100%, where Acontrolrepresented the absorbance of phosphate buffer control without test samples, Asample represented the absorbance of test samples. Acarbose was used as the […]

Another test has as its system α-amylase. As to the kind of experiment: α-amylase inhibitory activity. To be noted: for α-Amylase Inhibition at 0.1 mM: mean ± SD (n = 3), NA: no activity; for α-amylase inhibitory effects (in words): weaker than the positive control acarbose. The test is classed as biochemical. How it is done: S1.3. Determination of α-amylase inhibitory activity
Phosphate buffer (20 mM, pH 6.9, containing 6 mM NaCl) was used as the […]
µL, 1%, w/v) were mixed and incubated in a 96-well microplate at37 °C for 10 min.
Then, α-amylase solution (50 µL, 0.2 U/mL) was added and the mixture was incubated at 37 °C for an additional 10 min. The reaction was stopped by addition of […]
microplate was immediately heated in 95 °C water bath for 10 min. When the reaction solution cooled to room temperature, allsamples were diluted by adding distilled water (50 µL), and then their absorbance was measured using a microplate reader at […]
starch solution) at 540 nm, thus the inhibitory activity was calculated as (Acontrol-Asample)/Acontrol×100%, in which Asample was the absorbance of the sample and Acontrol was the absorbance of the phosphate buffer control without test samples. Acarbose was used as the positive control.
(§1) S1.4. DPPH radical scavenging assay […]

Test [1] is described as follows: DPPH radical scavenging assay. To be noted: mean ± SD (n = 3); NA: no activity. As to the method:
S1.4. DPPH radical scavenging assay
The DPPH radical scavenging assay was used to evaluate the antioxidant activity of compounds 1-11. In a 96-well microplate, 100 µL of DPPH solution (200 µM in ethanol) was added to 100 µL sample in ethanol at graded concentrations ranging from 7 to 500 µM. The mixture was incubated in the dark at room temperature for 30 min. The absorbance of the reaction mixture was measured at 517 nm using a microplate reader. The DPPH scavenging activity was calculated by the following formula: DPPH scavenging activity (%) = (Acontrol- Asample)/Acontrol×100%, where Acontrol was the absorbance of ethanol control without samples, Asample was the absorbance of sample. Ascorbic acid was used as the positive control in the […]

The nature of test [2]: ABTS radical scavenging assay. The following applies: mean ± SD (n = 3). As to the method:
as §1
S1.5. ABTS radical scavenging assay
The ABTS radical scavenging assay was used also to evaluate the antioxidant activity of compounds 1-11. The ABTS free radical cation (ABTS•+ )was manufactured by reacting ABTS stock solution (7 mM) with potassium persulphate

Another test has as its target T1, FAS (Gallus gallus, UniProt P12276).
T1 construct: isolated from chicken liver; from tissue; host or cells: chicken liver
As to the kind of experiment: FAS inhibitory activity. It is filed as biochemical, chicken. To be noted: mean ± SD (n = 3); NA: no activity. As to the method:
S1. Determination of bioactivities
S1.1. Determination of FAS inhibitory activity […]
diluted with potassium phosphate buffer (0.1 M, pH 7.0). Sample solution (100 µL, 20-2000 μM, 37 °C) and FAS substrates (1.8 mL, 37 °C) were mixed in a cuvette, and then FAS solution (100 µL, 37 °C, isolated from chicken liver and kept in ice-bath before use) was added. The absorbance of reaction mixture was monitored by a UV-vis spectrophotometer at340 nm in 1 min. The inhibitory effect was calculated by the following equation: FAS inhibition (%) = (Acontrol-Asample)/Acontrol× 100%, where Acontrolrepresented the FAS activity in the control group (phosphate buffer instead of sample solution), Asamplerepresented the FAS activity in the sample groups. The FAS activity was calculated as (A0 -A1)/1 min, in which A0 was the absorbance of the reaction mixture when the FAS was added, and A1 was the absorbance of the reaction mixture after reaction 1 min. Orlistat was used as the positive control.
FAS substrates: 0.1 M potassium phosphate buffer (pH 7.0), 1 mM ethylene-diaminetetraacetic acid (EDTA), 1 mM dithiothreitol, 3 µM acetyl-coenzyme A, 10 µM […], 35 µM NADPH. […]

Broadly, the IC50 is the point on the concentration scale where inhibition reaches its midpoint. A higher IC50 goes with weaker potency.

T1 sequence (P12276 2-2512 limits assumed): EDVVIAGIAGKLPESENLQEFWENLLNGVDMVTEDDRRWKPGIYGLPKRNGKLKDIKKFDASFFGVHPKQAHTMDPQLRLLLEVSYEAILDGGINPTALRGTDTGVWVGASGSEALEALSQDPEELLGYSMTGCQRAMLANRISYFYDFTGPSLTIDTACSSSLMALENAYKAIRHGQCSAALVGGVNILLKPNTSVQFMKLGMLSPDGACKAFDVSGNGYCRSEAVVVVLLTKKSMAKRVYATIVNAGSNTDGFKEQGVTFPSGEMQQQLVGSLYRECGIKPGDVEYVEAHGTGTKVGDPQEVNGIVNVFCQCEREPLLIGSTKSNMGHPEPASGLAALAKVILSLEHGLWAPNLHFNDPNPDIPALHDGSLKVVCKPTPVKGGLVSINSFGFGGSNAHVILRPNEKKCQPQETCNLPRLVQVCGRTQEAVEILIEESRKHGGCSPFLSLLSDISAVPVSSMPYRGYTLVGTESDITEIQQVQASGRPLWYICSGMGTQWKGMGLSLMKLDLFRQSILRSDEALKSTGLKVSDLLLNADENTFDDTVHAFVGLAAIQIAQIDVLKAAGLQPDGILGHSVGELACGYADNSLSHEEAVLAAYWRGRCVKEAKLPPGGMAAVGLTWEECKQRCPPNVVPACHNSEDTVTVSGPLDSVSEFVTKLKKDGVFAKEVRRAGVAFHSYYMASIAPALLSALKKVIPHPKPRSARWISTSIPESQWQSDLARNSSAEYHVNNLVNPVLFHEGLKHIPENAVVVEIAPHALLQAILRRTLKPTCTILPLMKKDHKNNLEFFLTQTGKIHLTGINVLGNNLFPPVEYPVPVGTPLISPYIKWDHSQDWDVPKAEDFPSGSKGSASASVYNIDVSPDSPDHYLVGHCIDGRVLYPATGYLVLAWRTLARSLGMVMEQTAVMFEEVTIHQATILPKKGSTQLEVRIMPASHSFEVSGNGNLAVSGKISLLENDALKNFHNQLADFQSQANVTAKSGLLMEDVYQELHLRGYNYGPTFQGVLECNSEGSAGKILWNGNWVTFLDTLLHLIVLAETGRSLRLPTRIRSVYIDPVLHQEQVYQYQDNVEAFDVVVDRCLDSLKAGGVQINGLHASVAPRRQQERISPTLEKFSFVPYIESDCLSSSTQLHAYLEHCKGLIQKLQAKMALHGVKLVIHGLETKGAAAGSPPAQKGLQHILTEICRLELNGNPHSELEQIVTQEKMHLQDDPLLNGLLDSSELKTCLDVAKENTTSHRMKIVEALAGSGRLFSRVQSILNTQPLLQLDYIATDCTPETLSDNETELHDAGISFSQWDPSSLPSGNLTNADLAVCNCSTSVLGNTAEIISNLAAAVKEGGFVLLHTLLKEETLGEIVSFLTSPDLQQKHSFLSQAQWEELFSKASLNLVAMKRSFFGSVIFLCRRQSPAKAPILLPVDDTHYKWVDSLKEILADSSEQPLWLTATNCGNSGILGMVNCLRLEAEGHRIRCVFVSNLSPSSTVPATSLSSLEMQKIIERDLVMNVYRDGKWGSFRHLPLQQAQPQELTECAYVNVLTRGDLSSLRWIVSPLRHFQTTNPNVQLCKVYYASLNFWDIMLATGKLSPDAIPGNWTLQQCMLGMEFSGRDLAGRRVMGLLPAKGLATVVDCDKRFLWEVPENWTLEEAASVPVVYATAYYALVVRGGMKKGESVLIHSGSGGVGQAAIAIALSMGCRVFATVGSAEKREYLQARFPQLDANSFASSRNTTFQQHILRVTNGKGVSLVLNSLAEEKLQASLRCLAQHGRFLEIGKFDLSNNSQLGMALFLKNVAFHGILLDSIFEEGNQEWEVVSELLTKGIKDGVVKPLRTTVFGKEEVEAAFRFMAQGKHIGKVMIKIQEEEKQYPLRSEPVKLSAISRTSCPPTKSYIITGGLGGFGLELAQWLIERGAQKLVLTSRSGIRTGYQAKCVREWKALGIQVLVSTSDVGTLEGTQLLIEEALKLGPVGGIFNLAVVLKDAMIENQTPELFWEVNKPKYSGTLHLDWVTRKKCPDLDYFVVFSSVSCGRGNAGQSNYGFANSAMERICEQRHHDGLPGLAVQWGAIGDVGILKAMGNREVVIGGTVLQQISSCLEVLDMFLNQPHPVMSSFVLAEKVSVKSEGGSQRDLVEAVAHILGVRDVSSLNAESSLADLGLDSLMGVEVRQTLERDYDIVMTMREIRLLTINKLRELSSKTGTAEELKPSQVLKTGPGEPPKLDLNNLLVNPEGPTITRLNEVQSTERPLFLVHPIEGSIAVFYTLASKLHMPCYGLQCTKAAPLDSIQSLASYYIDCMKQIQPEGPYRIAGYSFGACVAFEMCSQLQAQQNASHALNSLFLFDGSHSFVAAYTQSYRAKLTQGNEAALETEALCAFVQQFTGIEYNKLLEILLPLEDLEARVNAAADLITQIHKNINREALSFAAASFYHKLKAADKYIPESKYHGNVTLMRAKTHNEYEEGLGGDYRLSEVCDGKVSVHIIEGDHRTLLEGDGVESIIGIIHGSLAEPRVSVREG

`CC1OC(OC2C(O)C(OCCc3ccc(O)cc3)OC(CO)C2OC(=O)C=Cc2ccc(O)cc2)C(O)C(O)C1O` (stereo not drawn) [Compound 10, osmanthuside D]: the “α-Glucosidase Inhibition at 0.1 mM” value in the test on α-Glucosidase from yeast is recorded as 19.3 ± 5.6 e %. The “α-Amylase Inhibition at 0.1 mM” value with α-amylase worked out at 26.1 ± 1.9 c %. In the test with α-amylase, the “α-amylase inhibitory effects (in words)” value is on record as “moderate”. Further, the IC50 in test [1] was more than 250 µM; in test [2] it was 3.34 ± 0.02 µM.

Take `CC1OC(OC2C(O)C(OCc3ccccc3)OC(CO)C2OC(=O)C=Cc2ccc(O)cc2)C(O)C(O)C1O` (stereo not drawn) [Compound 4]: at FAS, the IC50 stood at 6.49 ± 0.27 µM.

As for `C[C@@H]1O[C@@H](O[C@@H]2[C@@H](O)[C@@H](O)[C@H](O[C@@H]3[C@@H](O)[C@H](OCCc4ccc(O)cc4)O[C@H](CO)[C@H]3OC(=O)/C=C/c3ccc(O)cc3)O[C@H]2C)[C@H](O)[C@H](O)[C@H]1O` [Compound 7, ligupurpuroside B], the “α-Amylase Inhibition at 0.1 mM” value with α-amylase is reported as 19.9 ± 1.8 d %. For the same compound, the IC50 is more than 250 µM in test [1] and 2.75 ± 0.09 µM in test [2].

Consider `C[C@@H]1O[C@@H](O[C@@H]2[C@@H](O)[C@H](OCc3ccccc3)O[C@H](COC(=O)/C=C\c3ccc(O)cc3)[C@H]2O)[C@H](O)[C@H](O)[C@H]1O` [Compound 6, benzyl 3-O-(α-L-rhamnopyranosyl)-6-O-(cis-p-coumaroyl)-O-β-D-glucopyranoside], for which the “α-Glucosidase Inhibition at 0.1 mM” value in the test with α-Glucosidase from yeast is reported as 36.5 ± 1.5 c %. In test [2], the midpoint of inhibition, the IC50, lay at 20.7 ± 0.22 µM.

On to `C[C@@H]1O[C@@H](O[C@@H]2[C@@H](O)[C@@H](O)[C@H](O[C@@H]3[C@@H](O)[C@H](OCCc4ccc(O)cc4)O[C@H](CO)[C@H]3OC(=O)/C=C/c3ccc(O)c(O)c3)O[C@H]2C)[C@H](O)[C@H](O)[C@H]1O` [Compound 9, ligurobustoside N], for which the values for the IC50 (against FAS; in test [1]; in test [2]) were 5.61 ± 0.44 µM, 29.2 ± 0.37 µM and 2.68 ± 0.05 µM, respectively. Also, the “α-Glucosidase Inhibition at 0.1 mM” value in the test with α-Glucosidase from yeast amounted to 25.4 ± 4.1 d %. For the same compound, the “α-Amylase Inhibition at 0.1 mM” value in the test with α-amylase was 15.9 ± 3.1 e %.

Turning to `CC1OC(OC2C(C)OC(OC3C(O)C(OCCc4ccc(O)cc4)OC(CO)C3OC(=O)C=Cc3ccc(O)cc3)C(O)C2O)C(O)C(O)C1O` (stereo not drawn) [Compound 8, cis-ligupurpuroside B], the 50% inhibitory concentration (IC50) in test [1] was more than 250 µM; in test [2], 4.17 ± 0.06 µM.

Take `CC1OC(OC2C(O)C(COC(=O)C=Cc3ccc(O)cc3)OC(OCCc3ccc(O)cc3)C2O)C(O)C(O)C1O` (stereo not drawn) [Compound 11, (Z)-osmanthuside B6]: the half-inhibitory concentration (IC50) is 4.55 ± 0.35 µM on FAS, more than 250 µM in test [1] and 3.83 ± 0.05 µM in test [2]. The “α-Amylase Inhibition at 0.1 mM” value in the test on α-amylase amounted to 23.5 ± 1.7 c %. Besides, the “α-amylase inhibitory effects (in words)” value with α-amylase is “moderate”.

For the compound `CC1OC(OC2C(C)OC(OC3C(O)C(OCC(O)c4ccc(O)c(O)c4)OC(CO)C3OC(=O)C=Cc3ccc(O)cc3)C(O)C2O)C(O)C(O)C1O` (stereo not drawn) [Compound 2], the “α-Amylase Inhibition at 0.1 mM” value in the test with α-amylase was 10.6 ± 2.3 f %. For the same compound, the figures for the IC50 in test [1] and in test [2] were 43.2 ± 1.06 µM and 10.6 ± 0.48 µM, respectively.

For `C[C@@H]1O[C@@H](O[C@@H]2[C@@H](O)[C@@H](O)[C@H](O[C@@H]3[C@@H](O)[C@H](OCC(=O)c4ccc(O)c(O)c4)O[C@H](CO)[C@H]3OC(=O)/C=C/c3ccc(O)cc3)O[C@H]2C)[C@H](O)[C@H](O)[C@H]1O` [Compound 3, 2-(3,4-dihydroxyphenyl)-2-oxoethyl 3-O-[α-L-rhamnopyranosyl-(1→4)-α-L-rhamnopyranosyl]-4-O-(trans-p-coumaroyl)-O-β-D-glucopyranoside], in the test on α-Glucosidase from yeast, the “α-Glucosidase Inhibition at 0.1 mM” value was determined as 42.3 ± 8.7 bc % and the “α-glucosidase inhibitory effects (in words)” value is reported as “moderate”. Also, in test [1], the IC50 stood at 23.8 ± 0.89 µM. In test [2], the IC50 was 4.13 ± 0.06 µM.

Regarding `O=C1O[C@H]([C@@H](O)CO)C(O)=C1O` [L-(+)-ascorbic acid, reference compound], the 50% inhibitory concentration (IC50) came out at 13.66 ± 0.13 µM in test [1] and 10.1 ± 0.19 µM in test [2].

For the compound `C[C@@H]1O[C@@H](O[C@@H]2[C@@H](O)[C@H](OCc3ccccc3)O[C@H](COC(=O)/C=C/c3ccc(O)cc3)[C@H]2O)[C@H](O)[C@H](O)[C@H]1O` [Compound 5, benzyl 3-O-(α-L-rhamnopyranosyl)-6-O-(trans-p-coumaroyl)-O-β-D-glucopyranoside], in the test on α-Glucosidase from yeast, the “α-Glucosidase Inhibition at 0.1 mM” value is reported as 45.1 ± 2.5 b % and the “α-glucosidase inhibitory effects (in words)” value is recorded as “moderate”. Further, the IC50 in test [1] was more than 250 µM. In test [2], this compound came in with a half-inhibitory concentration (IC50) of 4.86 ± 0.06 µM.
